Laboratory results from patent publication US20050142531A1, “Peptidically buffered formulations for electrotransport applications and methods of making” (priority 2003, published 2005).
Converted amounts (≈) assume the structure as drawn. Structures can show the parent of a compound that is named as a salt. Square brackets hold non-standard residues; d marks the D form. Peptide text beside a SMILES is read from it. Orn = NCCC[C@H](N)C(=O)O

Experiments:
[1] = Conductivities and solubilities of selected multipeptides at their pI; format: physicochemical; conditions: for pI: Table 1; for Solubility: at pI
Text: Table 1 lists conductivities and solubilities of selected multipeptides useful in the present invention, at their pI. The pH buffering capacity of the peptidic buffers of the present invention can be explained by using Gly-His at pH 7.5 as an example (the pI of Gly-His is 7.55). At this pH, the net charge of the molecule is essentially zero. At the pI, three species coexist. The bulk of the molecule (70%) consists of the neutral species that bears two internal charges, one positive and one negative resulting in a net charge of zero. […] Although there are small percentages of species presenting a net positive or negative charge in solution, there is minimal ionic transport of these charged species due to charge equilibrium between the three species (i.e., a positive charge migrating in the electric field will revert almost instantly to its neutral form and lose momentum or to its negative form and migrate backward). Thus, there is little if any ionic transport of the charged peptides into the systemic circulation of the patient. Due to the same principle of charge equilibrium, any depletion of the charged molecules will be compensated immediately by dissociation of the neutral form to its charged species thereby providing a reservoir insuring long term pH stability. In addition, if loss of the molecule occurs by electroosmosis of the neutral species, this will not result in any pH changes.

[2] = pKa, pI and % salt of peptidic buffers; format: physicochemical
[3] = cited from earlier work

Structure (SMILES) | pI [1] | Solubility [1] [mol/L] | pka A (acidic pKa) ([2]; Table 2, first acidic pKa) | pka B (basic pKa) ([2]; Table 2, first basic pKa) | pka B (basic pKa) ([2]; Table 2, second basic pKa) | pka A (acidic pKa) ([2]; Table 2, second acidic pKa) | also measured
C[C@H](NC(=O)[C@@H](N)Cc1c[nH]cn1)C(=O)O [His-Ala] (H-His-Ala-OH; N-terminus and C-terminus assumed) | 6.95 | 0.50 (≈ 113 mg/mL) | 2.48 | 6.10 | 7.80 |  | 
NCCCC[C@H](N)C(=O)N[C@@H](CC(=O)O)C(=O)O [Lys-Asp] (H-Lys-Asp-OH; N-terminus and C-terminus assumed) | 6.08 | 1.00 (≈ 261 mg/mL) | 2.64 | 8.05 | 11.20 | 4.10 | 
N[C@@H](Cc1c[nH]cn1)C(=O)NCC(=O)O [His-Gly] (H-His-Gly-OH; N-terminus and C-terminus assumed) | 6.90 | 1.00 (≈ 212 mg/mL) | 2.41 | 5.90 | 7.91 |  | 
CO/N=C(\C(=O)N[C@@H]1C(=O)N2C(C(=O)O)=C(CSc3nc(C)c(CC(=O)O)s3)CS[C@H]12)c1csc(N)n1 [Cefodizime disodium salt] |  |  |  |  |  |  | pKa (first value) ([3]; first listed): 2.85; pKa (second value) ([3]; second listed): 3.37; pKa (third value) ([3]; third listed): 4.18
N[C@@H](Cc1c[nH]cn1)C(=O)N[C@@H](CC(=O)O)C(=O)O [His-Asp] (H-His-Asp-OH; N-terminus and C-terminus assumed) | 5.22 | 0.05 (≈ 13.5 mg/mL) | 2.28 | 6.45 | 8.19 | 3.99 | 
CO/N=C(\C(=O)N[C@@H]1C(=O)N2C(C(=O)O)=C(CSc3nc(=O)c(=O)[nH]n3C)CS[C@H]12)c1csc(N)n1 [ceftriaxone] |  |  |  |  |  |  | pKa (amine) ([3]; amine): 3.2; pKa (carboxylic) ([3]; carboxylic): 3; pKa (enolic OH) ([3]; enolic OH): 4.1
NCCCC[C@H](NC(=O)[C@@H](N)CCC(=O)O)C(=O)O [Glu-Lys] (H-Glu-Lys-OH; N-terminus and C-terminus assumed) | 6.00 | 1.00 (≈ 275 mg/mL) | 2.85 | 7.94 | 11.07 | 4.01 | 
CC(C)[C@H](N)C(=O)N[C@@H](Cc1c[nH]cn1)C(=O)O [Val-His] (H-Val-His-OH; N-terminus and C-terminus assumed) | 7.38 | 0.20 (≈ 50.9 mg/mL) | 3.09 | 6.83 | 7.94 |  | 
NCCC[C@H](NC(=O)[C@@H](N)Cc1c[nH]cn1)C(=O)O [His-Ornithine] (H-His-[Orn]-OH; N-terminus and C-terminus assumed) |  |  | 2.82 | 6.10 | 7.80 |  | pka B (basic pKa) ([2]; Table 2, third basic pKa): 11.00
N[C@@H](CC(=O)O)C(=O)N[C@@H](CC(=O)O)C(=O)O [Asp-Asp] (H-Asp-Asp-OH; N-terminus and C-terminus assumed) |  |  | 2.70 | 8.26 |  | 3.40 | pka A (acidic pKa) ([2]; Table 2, third acidic pKa): 4.70
NCC(=O)N[C@@H](Cc1c[nH]cn1)C(=O)O [Gly-His] (H-Gly-His-OH; N-terminus and C-terminus assumed) | 7.55 | 1.00 (≈ 212 mg/mL) | 2.42 | 6.71 | 8.39 |  | 
N[C@@H](CO)C(=O)N[C@@H](Cc1c[nH]cn1)C(=O)O [Ser-His] (H-Ser-His-OH; N-terminus and C-terminus assumed) |  |  | 2.42 | 6.71 | 7.70 |  | 
N[C@@H](Cc1c[nH]cn1)C(=O)N[C@@H](CCC(=O)O)C(=O)O [His-Glu] (H-His-Glu-OH; N-terminus and C-terminus assumed) | 5.20 | 0.40 (≈ 114 mg/mL) | 2.30 | 6.32 | 8.07 | 4.19 | 
C[C@@H](O)[C@H](N)C(=O)N[C@@H](Cc1c[nH]cn1)C(=O)O [Thr-His] (H-Thr-His-OH; N-terminus and C-terminus assumed) |  |  | 2.42 | 6.71 | 7.60 |  | 
NCCCC[C@H](N)C(=O)N[C@@H](CCC(=O)O)C(=O)O [Lys-Glu] (H-Lys-Glu-OH; N-terminus and C-terminus assumed) | 6.06 | 0.50 (≈ 138 mg/mL) | 2.74 | 7.92 | 11.12 | 4.18 | 
CC(C)C[C@H](N)C(=O)N[C@@H](Cc1c[nH]cn1)C(=O)O [Leu-His] (H-Leu-His-OH; N-terminus and C-terminus assumed) |  |  | 2.42 | 6.71 | 8.25 |  | 
N[C@@H](CCC(=O)O)C(=O)N[C@@H](Cc1c[nH]cn1)C(=O)O [Glu-His] (H-Glu-His-OH; N-terminus and C-terminus assumed) |  |  | 2.45 | 6.81 | 8.20 | 3.45 | 
N[C@@H](Cc1c[nH]cn1)C(=O)N[C@@H](Cc1c[nH]c2ccccc12)C(=O)O [His-Trp] |  |  | 3.07 | 6.10 | 7.80 |  | 
NCCCC[C@H](NC(=O)[C@@H](N)Cc1c[nH]cn1)C(=O)O [His-Lys] (H-His-Lys-OH; N-terminus and C-terminus assumed) |  |  | 3.05 | 6.10 | 7.80 |  | pka B (basic pKa) ([2]; Table 2, third basic pKa): 11.00
